The values that follow come from US20210379146A1, “METHOD TO RESTORE OR IMPROVE COGNITIVE FUNCTIONS” (INSERM (INSTITUT NATIONAL DE LA SANTÉ ET DE LA RECHERCHE …, priority 2018, published 2021).

Test [1] has as its system C57BL/6J male mice. Kind of test: Contextual fear conditioning (CFC). It is filed as in vivo, mouse. As to conditions: for memory performance in testing phase of CFC: 3 month-old WT mice, single acute hippocampal stereotactic injection 12 hours before training phase.
The test system of test [2] is hippocampal autophagy (LC3-II). The conditions noted are these: 16 month-old mice, 12 hours after hippocampal stereotactic injection, 1 μg/hemisphere, compared with 3 month-old mice.
The test system of test [3] is C57BL/6J male mice. Kind of test: Novel object recognition (NOR). The class given is in vivo, mouse. The conditions noted are these: for memory performance in testing phase of NOR: 3 month-old WT mice, single acute hippocampal stereotactic injection 12 hours before training phase.
Test [4] concerns C57BL/6J male mice. The conditions noted are these: 16 month-old mice, local hippocampal stereotactic injection 1 μg/hemisphere, versus 3 month-old mice.
Where [5] appears, read: 16 month-old mice, 14 days of daily intraperitoneal injections, 450 μg.
Setting [6] is: 16 month-old mice, local hippocampal stereotactic injection 1 μg/hemisphere, versus 3 month-old mice.

Turning to “YGRKKRRQRRRGGTNVFNATFEIWHDGEFGT [TAT-Beclin 1]”, in the test with C57BL/6J male mice [1], the “memory performance in testing phase of CFC” value (shortened to “memory performance … of CFC”) was “enhanced learning/memory capacities”. Moreover, the “age-related memory decline, CFC” value with C57BL/6J male mice [1] (setting [5]) was “counteract normal age-related memory decline”. In addition, the “age-related memory deficits, CFC” value in the test with C57BL/6J male mice [1] (setting [6]) is listed as “rescue age-related memory deficits”. In addition, in test [2], the “LC3-II levels (Western blot)” value is “restored LC3-II levels in old (16 months) to the level of young (3 months) mice”. For the same compound, the “memory performance in testing phase of NOR” value (shortened to “memory performance … of NOR”) with C57BL/6J male mice [3] is given as “enhanced learning/memory capacities”. Also, in the test with C57BL/6J male mice [3] (setting [5]), the “age-related memory decline, NOR” value is recorded as “counteract normal age-related memory decline”. In the test on C57BL/6J male mice [3] (setting [6]), the “age-related memory deficits, NOR” value was “rescue age-related memory deficits”. Besides, the “age-related memory deficits, OLM” value in the test with C57BL/6J male mice [4] was “rescue age-related memory deficits”.

Take `CCN(CC)CCCC(C)Nc1ccnc2cc(Cl)ccc12` (centres unmarked) [chloroquine, Chloroquine, reference compound]: the “memory performance … of CFC” value in the test with C57BL/6J male mice [1] was “significant decrease in memory performance”. Moreover, the “memory performance … of NOR” value in the test with C57BL/6J male mice [3] is “significant decrease in memory performance”.

As to `CC(=O)N[C@@H](CC(C)C)C(=O)N[C@@H](CC(C)C)C(=O)N[C@H](C=O)CCCNC(=N)N` [leupeptin, Leupeptin, reference compound], the “memory performance … of CFC” value in the test on C57BL/6J male mice [1] is “significant decrease in memory performance”. Moreover, in the test with C57BL/6J male mice [3], the “memory performance … of NOR” value is “significant decrease in memory performance”.

`Fc1ccc(CNc2ncnc3ccc(F)cc23)cc1` [Spautin-1, reference compound]: the “memory performance … of CFC” value in the test on C57BL/6J male mice [1] was “significant decrease in memory performance”. The “memory performance … of NOR” value with C57BL/6J male mice [3] is on record as “significant decrease in memory performance”.
